Structures can show the parent of a compound that is named as a salt.
System: modified version of the GPR119 receptor (94% identity to human receptor)
Experiment: cAMP production assay (LANCE cAMP kit, TR-FRET) in HEK-293 cells
Format: cell-based
Details: for cAMP production in HEK-293 cells: HEK-293 cells stably expressing modified GPR119, test compounds 0.2 nM to 10 μM, one-hour incubation at ambient temperature; for Fold over baseline: increase in cAMP relative to basal levels, agonist activity if 1.5-fold or greater
Outline: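 Doxycycline-induced (1 μg/mL, overnight) HEK-293 cells expressing modified GPR119 were thawed, 2000 cells/well, and exposed to compounds (0.2 nM-10 μM final, 0.5% DMSO) for 1 h at ambient temperature in HBSS/HEPES/BSA. cAMP was measured by LANCE TR-FRET against a standard curve. Agonism was defined as ≥1.5-fold over basal.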

## CCCc1cnc(N2CCC(N3CCC[C@H](Nc4ccc(S(C)(=O)=O)cc4F)C3=O)CC2)nc1 [Example 42, (S)-3-(2-fluoro-4-(methylsulfonyl)phenylamino)-1′-(5-propylpyrimidin-2-yl)-[1,4′-bipiperidin]-2-one]
  cAMP production in HEK-293 cells: 5.7 nmol
  Fold over baseline: 2.1

## CS(=O)(=O)c1ccc(N[C@H]2CCN(C3CCN(c4cnc(C(F)(F)F)cn4)CC3)C2=O)c(F)c1 [Example 13, (S)-3-(2-fluoro-4-(methylsulfonyl)phenylamino)-1-(1-(5-(trifluoromethyl)pyrazin-2-yl)piperidin-4-yl)pyrrolidin-2-one]
  cAMP production in HEK-293 cells: 24.8 nmol
  Fold over baseline: 4.4

## CC(C)c1cnc(N2CCC(N3CCC[C@H](Nc4cc(F)c(S(C)(=O)=O)cc4F)C3=O)CC2)cn1 [Example 60, (S)-3-(2,5-difluoro-4-(methylsulfonyl)phenylamino)-1′-(5-isopropylpyrazin-2-yl)-[1,4′-bipiperidin]-2-one]
  cAMP production in HEK-293 cells: 27.4 nmol
  Fold over baseline: 4.4

## CS(=O)(=O)c1cc(F)c(O[C@H]2CCN(C3CCN(c4ncc(C(F)(F)F)cc4F)CC3)C2=O)cc1F [Example 166, (S)-3-(2,5-difluoro-4-(methylsulfonyl)phenoxy)-1-(1-(3-fluoro-5-(trifluoromethyl)pyridin-2-yl)piperidin-4-yl)pyrrolidin-2-one]
  cAMP production in HEK-293 cells: 15.3 nmol
  Fold over baseline: 3.6

## CS(=O)(=O)c1ccc(N[C@H]2CCN(C3CCN(c4cnc(Cl)cn4)CC3)C2=O)c(F)c1 [Example 4, (S)-1-(1-(5-chloropyrazin-2-yl)piperidin-4-yl)-3-(2-fluoro-4-(methylsulfonyl)phenylamino)pyrrolidin-2-one]
  cAMP production in HEK-293 cells: 27.3 nmol
  Fold over baseline: 4.1

## CS(=O)(=O)c1cc(F)c(N[C@H]2CCCCN(C3CCN(c4cnc(Cl)cn4)CC3)C2=O)cc1F.Cl [Example 81, (S)-1-(1-(5-chloropyrazin-2-yl)piperidin-4-yl)-3-(2,5-difluoro-4-(methylsulfonyl)phenylamino)azepan-2-one hydrochloride]
  cAMP production in HEK-293 cells: 22.7 nmol
  Fold over baseline: 5.0

## CCc1ccc(N2CCC(N3CC[C@H](Nc4ccc(S(C)(=O)=O)cc4F)C3=O)CC2)nc1 [Example 27A, (S)-1-(1-(5-Ethylpyridin-2-yl)piperidin-4-yl)-3-(2-fluoro-4-(methylsulfonyl)phenylamino)pyrrolidin-2-one]
  cAMP production in HEK-293 cells: 12.9 nmol
  Fold over baseline: 2.9

## O=C1[C@@H](Nc2ccc(S(=O)(=O)C3CC3)nc2)CCN1C1CCN(c2cnc(Cl)cn2)CC1 [Example 124, (S)-1-(1-(5-chloropyrazin-2-yl)piperidin-4-yl)-3-(6-(cyclopropylsulfonyl)pyri-din-3-ylamino)pyrrolidin-2-one]
  cAMP production in HEK-293 cells: 14.1 nmol
  Fold over baseline: 3.6

## O=C1C(Oc2ccc(-n3cnnn3)nc2)CCN1C1CCN(c2cnc(Cl)cn2)CC1 (stereo not drawn) [Example 67, 3-(6-(1H-tetrazol-1-yl)pyridin-3-yloxy)-1-(1-(5-chloropyrazin-2-yl)piperidin-4-yl)pyrrolidin-2-one]
  cAMP production in HEK-293 cells: 15.6 nmol
  Fold over baseline: 2.9

## COc1cnc(N2CCC(N3CC[C@H](Nc4ccc(S(C)(=O)=O)cc4F)C3=O)CC2)cn1 [Example 160, (S)-3-(2-fluoro-4-(methylsulfonyl)phenylamino)-1-(1-(5-methoxypyrazin-2-yl)piperidin-4-yl)pyrrolidin-2-one]
  cAMP production in HEK-293 cells: 22.3 nmol
  Fold over baseline: 3.9

## CS(=O)(=O)c1ccc(N[C@H]2CCN(C3CCN(c4ncc(Cl)cn4)CC3)C2=O)c(F)c1 [Example 10, (S)-1-(1-(5-chloropyrimidin-2-yl)piperidin-4-yl)-3-(2-fluoro-4-(methylsulfonyl)phenylamino)pyrrolidin-2-one]
  cAMP production in HEK-293 cells: 6.5 nmol
  Fold over baseline: 2.1

## CS(=O)(=O)c1ccc(N[C@H]2CCN(C3CCN(c4ccc(C(F)(F)F)cn4)CC3)C2=O)c(F)c1 [Example 99, (S)-3-(2-fluoro-4-(methyl-sulfonyl)phenylamino)-1-(1-(5-(trifluoromethyl)pyridin-2-yl)piperidin-4-yl)pyrrolidin-2-one]
  cAMP production in HEK-293 cells: 12.4 nmol
  Fold over baseline: 3.5

## CCc1cnc(N2CCC(N3CC[C@H](Nc4ccc(S(C)(=O)=O)cc4F)C3=O)CC2)cn1 [Example 89, (S)-1-(1-(5-ethylpyrazin-2-yl)piperidin-4-yl)-3-(2-fluoro-4-(methylsulfonyl)phenyl-amino)pyrrolidin-2-one trifluoroactetate]
  cAMP production in HEK-293 cells: 23.1 nmol
  Fold over baseline: 4.8

## CCc1cnc(N2CCC(N3CCC[C@H](Nc4cc5c(cc4F)S(=O)(=O)CC5)C3=O)CC2)nc1 [Example 73, (S)-1′-(5-ethylpyrimidin-2-yl)-3-((6-fluoro-1,1-dioxido-2,3-dihydrobenzo[b]thiophen-5-yl)amino)-[1,4′-bipiperidin]-2-one]
  cAMP production in HEK-293 cells: 14.4 nmol
  Fold over baseline: 3.0

## O=C1[C@@H](Nc2ccc(C(F)(F)F)cn2)CCN1C1CCN(c2cnc(Cl)cn2)CC1 [Example 23, (S)-1-(1-(5-chloropyrazin-2-yl)piperidin-4-yl)-3-(5-(trifluoromethyl)pyridin-2-ylamino)pyrrolidin-2-one]
  cAMP production in HEK-293 cells: 13.6 nmol
  Fold over baseline: 3.0

## CS(=O)(=O)c1ccc(N[C@H]2CCN(C3CCN(c4ncc(C(F)(F)F)cc4F)CC3)C2=O)c(F)c1 [Example 114, (S)-3-(2-fluoro-4-(methylsulfonyl)phenyl-amino)-1-(1-(3-fluoro-5-(trifluoromethyl)pyridin-2-yl)piperidin-4-yl)pyrrolidin-2-one]
  cAMP production in HEK-293 cells: 17.7 nmol
  Fold over baseline: 3.8

## Cc1cc(S(C)(=O)=O)ncc1N[C@H]1CCN(C2CCN(c3ncc(Cl)cc3F)CC2)C1=O [Example 121, (S)-1-(1-(5-chloro-3-fluoropyridin-2-yl)piperidin-4-yl)-3-(4-methyl-6-(methylsulfonyl)pyridin-3-ylamino) pyrrolidin-2-one]
  cAMP production in HEK-293 cells: 10.6 nmol
  Fold over baseline: 2.5

## O=C1[C@@H](Oc2ccc(-n3cnnn3)cc2)CCN1C1CCN(c2ncc(C(F)(F)F)cc2Cl)CC1 [Example 137, (S)-3-(4-(1H-tetrazol-1-yl)phenoxy)-1-(1-(3-chloro-5-(trifluoro-methyl)pyridin-2-yl)piperidin-4-yl) pyrrolidin-2-one]
  cAMP production in HEK-293 cells: 31.7 nmol
  Fold over baseline: 6.5

## CC(C)c1cnc(N2CCC(N3CC[C@H](Nc4ccc(S(C)(=O)=O)cc4F)C3=O)CC2)nc1 [Example 29, (S)-3-(2-fluoro-4-(methylsulfonyl)phenylamino)-1-(1-(5-isopropylpyrimidin-2-yl)piperidin-4-yl)pyrrolidin-2-one trifluoroacetate]
  cAMP production in HEK-293 cells: 11.5 nmol
  Fold over baseline: 2.1

## Cc1cnc(N2CCC(N3CC[C@H](Nc4ccc(S(C)(=O)=O)cc4F)C3=O)CC2)c(C#N)n1 [Example 134, (S)-3-(4-(3-(2-fluoro-4-(methylsulfonyl)phenyl-amino)-2-oxopyrrolidin-1-yl)piperidin-1-yl)-6-methylpyrazine-2-carbonitrile]
  cAMP production in HEK-293 cells: 35.7 nmol
  Fold over baseline: 2.7

## CCc1cnc(N2CCC(N3CC[C@H](Oc4cc(C)c(C#N)cc4F)C3=O)CC2)nc1 [Example 98, (S)-4-(1-(1-(5-ethylpyrimidin-2-yl)piperidin-4-yl)-2-oxopyrrolidin-3-yloxy)-5-fluoro-2-methylbenzonitrile]
  cAMP production in HEK-293 cells: 31.2 nmol
  Fold over baseline: 3.5

## CS(=O)(=O)c1ccc(N[C@H]2CCN(C3CCN(c4ncc(CO)cc4Cl)CC3)C2=O)c(F)c1 [Example 156, (S)-1-(1-(3-chloro-5-(hydroxymethyl)pyridin-2-yl)piperidin-4-yl)-3-(2-fluoro-4-(methylsulfonyl)phenylamino)pyrrolidin-2-one]
  cAMP production in HEK-293 cells: 17.3 nmol
  Fold over baseline: 2.3

## CS(=O)(=O)c1cc(F)c(N[C@H]2CCN(C3CCN(c4ncc(Cl)cc4Cl)CC3)C2=O)c(F)c1 [Example 110, (S)-1-(1-(3,5-dichloropyridin-2-yl)piperidin-4-yl)-3-(2,6-difluoro-4-(methylsulfonyl)phenyl-amino)pyrrolidin-2-one]
  cAMP production in HEK-293 cells: 29.3 nmol
  Fold over baseline: 2.3

## CCc1cnc(N2CCC(N3CCC[C@H](Nc4cc(C)c(S(C)(=O)=O)cc4F)C3=O)CC2)nc1 [Example 58, (S)-1′-(5-ethylpyrimidin-2-yl)-3-(2-fluoro-5-methyl-4-(methylsulfonyl)phenylamino)-[1,4′-bipiperidin]-2-one]
  cAMP production in HEK-293 cells: 13.2 nmol
  Fold over baseline: 2.4

## CS(=O)(=O)c1ccc(N[C@H]2CCCN(C3CCN(c4ncc(C(F)(F)F)cn4)CC3)C2=O)c(F)c1 [Example 41, (S)-3-(2-fluoro-4-(methyl-sulfonyl)phenylamino)-1′-(5-(trifluoromethyl)pyrimidin-2-yl)-1,4′-bipiperidin-2-one]
  cAMP production in HEK-293 cells: 7.4 nmol
  Fold over baseline: 1.7

## COC(=O)c1ccc(O[C@H]2CCN(C3CCN(c4ncc(C(F)(F)F)cc4Cl)CC3)C2=O)c(F)c1 [Example 140, (S)-methyl 4-(1-(1-(3-chloro-5-(trifluoro-methyl)pyridin-2-yl)piperidin-4-yl)-2-oxopyrrolidin-3-yloxy)-3-fluorobenzoate]
  cAMP production in HEK-293 cells: 12.2 nmol
  Fold over baseline: 2.7

## CCc1cnc(N2CCC(N3CCC[C@H](N(C)c4cc(F)c(S(C)(=O)=O)cc4F)C3=O)CC2)nc1 [Example 78, (S)-3-((2,5-difluoro-4-(methylsulfonyl)phenyl)(methyl)amino)-1′-(5-ethylpyrimidin-2-yl)-[1,4′-bipiperidin]-2-one]
  cAMP production in HEK-293 cells: 13.6 nmol
  Fold over baseline: 3.4

Source: patent US8754226B2, “Piperidinyl-substituted lactams as GPR119 modulators” (Array BioPharma Inc., priority 2010, dated 2014)
